In article PMC7794297:
Where “and” joins values, the source holds several entries; their conditions need not be identical. Equal values may be shown once. Read-outs that look alike come from different tables or passages of the source.

What was measured:
[1] = molecular target: T1, glucose oxidase (GOx) (Aspergillus niger, UniProt P13006)
[2] = molecular target: bovine serum albumin (BSA) (Bos taurus, UniProt P02769); test: BSA tolerance to DMSO, Trp emission fluorescence
[3] = for Kobs: 190 μM 3, Tris pH 7.8, 6 °C
[4] = molecular target: T2, scrambled RNase A (Bos taurus, UniProt P61823); test: Folding of scrambled RNase A at pH 5.4 (cCMP hydrolysis); conditions: in <2 h
T2 sequence (P61823 27-150): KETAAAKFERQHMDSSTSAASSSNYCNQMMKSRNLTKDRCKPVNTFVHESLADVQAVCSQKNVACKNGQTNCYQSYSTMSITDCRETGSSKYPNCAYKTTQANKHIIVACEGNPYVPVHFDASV

[5] = molecular target: T1, glucose oxidase (GOx); test: GOx tolerance to Secox, Trp emission fluorescence; parameters: purchased Sigma Aldrich
[6] = molecular target: T2, scrambled RNase A; test: Folding of scrambled RNase A at pH 7.8 (cCMP hydrolysis); conditions: for V0: Secox / GSH 1 mM/5 mM
[7] = Spermine-templated DCL of building blocks 2 and 3; conditions: two building blocks DCL with spermine; 5% (mol); control 96 h
Protocol: (§1) Building blocks 2 and 3 equipped with carboxylate moieties to establish interactions with the protonated amine groups of the spermine were allowed to equilibrate at pH 7.8 and 6 °C (Fig. 8a). As expected in our control experiment, the major component in the absence of spermine was the linear tetramer (2)2(3)2. After the addition of spermine, the linear tetramer “decomposed” in order to form mainly the cyclic tetramer of (2)4, and the (3)2 dimer (Fig. 8a). As it was reported, several studies determined that the spermine was threaded through the macrocycle fixing the configuration to a highly symmetric stereoisomer of (2)4[36]. […] The precise composition of the DCL (with and without spermine), was assessed by measuring the relative peak area (RPA). Indeed, the normalized change of RPA was used to quantify the spermine influence in the outcome (Supplementary Fig. 42)[46]. The same template (spermine) was tested in our reference DCL of four building blocks (1–4) in the absence and presence of Secox (Fig. 8b). […] Additionally, two different templates were tested to confirm the absence of conflict between selenocystine and the templating effect. Spermidine and NADPH were introduced in our 4 building blocks DCL (1–4) in the absence and presence of Secox, leading to the amplification of different species and getting the same results as the non-catalyzed DCLs (Supplementary Figs. 44, 45, Supplementary Tables 7–10, and Supplementary Methods).
The DCL was stabilized at 96 h. […] The mixture was stabilized after 24 h. […] The DCL was stabilized at 96 h. […] The DCL was analyzed in 96 h after equilibration. DCLs were performed without stirring at 6 °C and analyzed by HPLC-MS.

[8] = Spermine-templated DCL of building blocks 1-4; conditions: four building blocks DCL with spermine; 5% mol
Protocol: as §1
The mixture was stabilized in 96 h. […] The mixture was stabilized after 24 h. […] It was stabilized in 24 h. […] DCL was equilibrated in 96 h. DCLs were performed without stirring at 6 °C and analyzed by HPLC-MS.

[9] = Slow DCL system of building blocks 5-8, equilibration by HPLC-MS; conditions: slow DCL 5-8; 5% mol (18.3 μM); 20% (v/v) DMSO, pH 7.8, 6 °C; control 192 h
Protocol: To broaden the scope of selenocystine we tested this catalyst in a slow disulfide-exchange system. The DCL comprised 4 building blocks (5–8)[37], three of them being aliphatic thiols with pKa values around 9 to slow down the exchange reaction (Fig. 7a). Due to solubility issues, a 20% (v/v) DMSO was added and the reaction mixture was diluted. […] The different oligomers were identified by HPLC-MS (Supplementary Figs. 21–30).
Control DCL. […] The DCLs were analyzed until stabilization.

[10] = Equilibration of the thiol-disulfide DCL of building blocks 1-4 followed by HPLC-MS
Protocol: DMSO percentage is 2.5% v/v. […] DCLs were analyzed by HPLC-MS until equilibration without stirring at 6 °C.
Control DCL. […] DMSO percentage is 2.5% v/v. Regarding Secox catalyzed DCL, different stocks of Secox were carried out in order to study the percentages of Secox. […] The DCLs were prepared at 6 °C without stirring and analyzed in several hours until the complete stabilization.

[11] = 10 % v/v DMSO, Supplementary Figure 48 b
[12] = 20 % v/v DMSO, Supplementary Figure 48 b
[13] = 60 % v/v DMSO, Supplementary Figure 48 b

T1 sequence (P13006 17-605): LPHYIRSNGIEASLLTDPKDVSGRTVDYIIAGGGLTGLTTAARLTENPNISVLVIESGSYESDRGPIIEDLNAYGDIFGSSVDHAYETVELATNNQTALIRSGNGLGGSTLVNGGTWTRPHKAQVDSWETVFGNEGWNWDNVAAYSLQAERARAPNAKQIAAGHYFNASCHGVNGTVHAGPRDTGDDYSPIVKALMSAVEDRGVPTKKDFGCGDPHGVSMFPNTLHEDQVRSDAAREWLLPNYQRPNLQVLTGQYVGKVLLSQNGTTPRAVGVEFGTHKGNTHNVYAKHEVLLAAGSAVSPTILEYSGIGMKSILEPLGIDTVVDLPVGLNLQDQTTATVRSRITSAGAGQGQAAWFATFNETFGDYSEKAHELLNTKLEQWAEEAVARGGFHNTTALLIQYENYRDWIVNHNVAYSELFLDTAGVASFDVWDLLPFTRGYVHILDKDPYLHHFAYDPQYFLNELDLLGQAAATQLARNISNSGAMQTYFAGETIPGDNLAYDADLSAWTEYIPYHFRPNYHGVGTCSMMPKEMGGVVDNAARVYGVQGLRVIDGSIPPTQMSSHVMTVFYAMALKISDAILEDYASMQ
bovine serum albumin (BSA), sequence (P02769 25-607): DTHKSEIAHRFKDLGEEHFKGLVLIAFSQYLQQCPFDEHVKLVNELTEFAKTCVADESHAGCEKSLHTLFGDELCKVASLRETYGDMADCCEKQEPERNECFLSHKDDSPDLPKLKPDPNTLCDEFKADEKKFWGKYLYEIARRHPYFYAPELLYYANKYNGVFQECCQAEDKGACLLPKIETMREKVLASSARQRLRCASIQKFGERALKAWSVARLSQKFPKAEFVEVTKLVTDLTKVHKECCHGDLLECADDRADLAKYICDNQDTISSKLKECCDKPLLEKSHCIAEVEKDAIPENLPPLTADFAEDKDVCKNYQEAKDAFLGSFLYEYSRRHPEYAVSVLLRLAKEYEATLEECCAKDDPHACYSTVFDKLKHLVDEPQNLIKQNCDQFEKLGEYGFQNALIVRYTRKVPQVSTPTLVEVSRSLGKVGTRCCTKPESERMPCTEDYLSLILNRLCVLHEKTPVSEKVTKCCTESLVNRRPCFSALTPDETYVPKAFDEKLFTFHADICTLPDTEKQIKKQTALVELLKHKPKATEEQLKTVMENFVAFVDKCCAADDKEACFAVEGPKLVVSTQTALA

In the case of `C[S+](C)[O-]` [DMSO], the “DMSO concentration tolerated by GOx (no shift of Trp emission maximum)” value [1] is reported as “up to 20%”, the “Fluorescence Emission (Average Value)” value ([1]; 1 % v/v DMSO) is reported as 4921084 and the “Wavelenght (nm) of Trp emission maximum” value ([1]; 1 % v/v DMSO) is reported as 329 nm. The “Fluorescence Emission (Average Value)” value ([1]; 2.5 % v/v DMSO) was 5438068, the “Wavelenght (nm) of Trp emission maximum” value ([1]; 2.5 % v/v DMSO) was 329 nm and the “Wavelenght (nm) of Trp emission maximum” value ([1]; 2.5 % v/v DMSO, Supplementary Figure 48 b) was 338 nm. The “Fluorescence Emission (Average Value)” value ([1]; 5 % v/v DMSO) was 4507601, the “Wavelenght (nm) of Trp emission maximum” value ([1]; 5 % v/v DMSO) was 329 nm and the “Wavelenght (nm) of Trp emission maximum” value ([1]; 5 % v/v DMSO, Supplementary Figure 48 b) was 337 nm. For the same molecule, the “Fluorescence Emission (Average Value)” value ([1]; 7.5 % v/v DMSO) was 4900904, the “Wavelenght (nm) of Trp emission maximum” value ([1]; 7.5 % v/v DMSO) was 329 nm and the “Fluorescence Emission (Average Value)” value ([1]; 10 % v/v DMSO) was 4964780. For the same molecule, the “Wavelenght (nm) of Trp emission maximum” value ([1]; 10 % v/v DMSO) was 329 nm, the “Fluorescence Emission (at maximum)” value [1, 11] was 7117020 and the “Wavelenght (nm) of Trp emission maximum” value [1, 11] was 336 nm. For the same molecule, the “Fluorescence Emission (Average Value)” value ([1]; 20 % v/v DMSO) was 5321027, the “Wavelenght (nm) of Trp emission maximum” value ([1]; 20 % v/v DMSO) was 329 nm and the “Fluorescence Emission (at maximum)” value [1, 12] was 7139475. For the same molecule, the “Wavelenght (nm) of Trp emission maximum” value [1, 12] was 335 nm, the “Fluorescence Emission (Average Value)” value ([1]; 40 % v/v DMSO) was 6356217 and the “Wavelenght (nm) of Trp emission maximum” value ([1]; 40 % v/v DMSO) was 336 nm. For the same molecule, the “Fluorescence Emission (Average Value)” value ([1]; 50 % v/v DMSO) was 10423932, the “Wavelenght (nm) of Trp emission maximum” value ([1]; 50 % v/v DMSO) was 337 nm and the “Fluorescence Emission (Average Value)” value ([1]; 60 % v/v DMSO) was 13490702. For the same molecule, the “Wavelenght (nm) of Trp emission maximum” value ([1]; 60 % v/v DMSO) was 338 nm, the “Fluorescence Emission (at maximum)” value [1, 13] was 8900408 and the “Wavelenght (nm) of Trp emission maximum” value [1, 13] was 327 nm. For the same molecule, the “Fluorescence Emission (Average Value)” value ([1]; 70 % v/v DMSO) was 30698968, the “Wavelenght (nm) of Trp emission maximum” value ([1]; 70 % v/v DMSO) was 339 nm and the “Fluorescence Emission (Average Value)” value ([1]; 80 % v/v DMSO) was 28715570. The “Wavelenght (nm) of Trp emission maximum” value ([1]; 80 % v/v DMSO) was 344 nm, the “Wavelenght (nm) of Trp emission maximum” value ([1]; 97 % v/v DMSO) was 349 nm and the “Fluorescence Emission (at maximum)” value ([1]; 97 % v/v DMSO, Supplementary Figure 48 b) was 24089455. The “DMSO concentration tolerated by BSA” value [2] was “up to 10%”, the “time until total completion of homodimerization” value (“time until total completion” for short) ([3]; 20% (v/v)) was 4 days and the Kobs ([3]; 20% (v/v) DMSO, 0% Secox) was 0.068 ± 0.001 M⁻¹ s⁻¹.
In the case of `N[C@@H](C[Se][Se]C[C@H](N)C(=O)O)C(=O)O` [Secox, selenocystine], the “yield of native RNase A” value [4] is reported as 75%, the “Wavelenght (nm) of GOx Trp fluorescence emission (Supplementary Figure 47 b)” value (from here on “Wavelenght (nm) … (Supplementary Figure 47 b)”) ([5]; 1 % Secox) is reported as 329 nm and the “Wavelenght (nm) … (Supplementary Figure 47 b)” value ([5]; 2.5 % Secox) is reported as 329 nm. For the same molecule, the “Wavelenght (nm) … (Supplementary Figure 47 b)” value ([5]; 5% Secox) was 329 nm, the “Wavelenght (nm) … (Supplementary Figure 47 b)” value ([5]; 7.5 % Secox) was 329 nm and the “Wavelenght (nm) … (Supplementary Figure 47 b)” value ([5]; 10 % Secox) was 329 nm. The “Wavelenght (nm) … (Supplementary Figure 47 b)” value ([5]; 30 % Secox) was 329 nm, the “Wavelenght (nm) … (Supplementary Figure 47 b)” value ([5]; 50 % Secox) was 329 nm and the “Wavelenght (nm) … (Supplementary Figure 47 b)” value ([5]; 100 % Secox) was 329 nm. The “effect on GOx stability (Trp emission maximum)” value ([5]; whole range of concentrations measured, up to 100 % mol) was “No shift was observed”, the “effect on scrambled RNase A folding” value ([6]; 20 mM Secox / 100 mM GSH, pH 7.8) was “partial inactivation of the protein” and the “V0” value ([6]; 33 min) was 73.3333 min⁻¹. The “V0” value ([6]; 65 min) was 91.6667 min⁻¹, the “V0” value ([6]; 95 min) was 91.6667 min⁻¹ and the “V0” value ([6]; 123 min) was 100 min⁻¹. For the same molecule, the “V0” value ([6]; 188 min) was 101.667 min⁻¹, the “V0” value ([6]; 232 min) was 98.3333 min⁻¹ and the “V0” value ([6]; 356 min) was 105 min⁻¹. For the same molecule, the “V0” value ([6]; 1440 min) was 101.667 min⁻¹, the “yield of the correctly folded enzyme” value ([6]; pH 7.8, 1 mM Secox/5 mM GSH, first 65 min) was 92% and the “increase of refolding rate by replacing GSSG with Secox” value ([6]; scrambled RNase A) was “five times”. For the same molecule, the DCL equilibration time [7] was 24 h, the DCL equilibration time [8] was 24 h and the Kobs ([3]; 1% (mol), 2.5% (v/v) DMSO) was 0.091 ± 0.002 M⁻¹ s⁻¹. The “time until total completion” value ([3]; 1% mol) was 3 days, the “time until total completion” value ([3]; 2.5% mol) was 2 days and the Kobs ([3]; 5% (mol) catalyst, 2.5% (v/v) DMSO, uncatalyzed 0.014 ± 0.001) was 0.259 ± 0.009 M⁻¹ s⁻¹. For the same molecule, the “acceleration over the uncatalyzed reaction” value ([3]; 5% Secox) was 18 fold, the “time until total completion” value ([3]; 5% mol) was 0.917 days and 1 days and the “time until total completion” value ([3]; 10% mol) was 0.75 days. For the same molecule, the DCL equilibration time [9] was 60 h, the DCL equilibration time ([10]; 190 μM as fifth building block, Tris 20 mM pH 7.8, 6 °C, control 4 days) was 24 h and the DCL equilibration time ([10]; 1% mol (5.7 μM), pH 7.8, 6 °C, control 96 h) was 72 h. For the same molecule, the DCL equilibration time ([10]; 2.5% mol (14.25 μM), pH 7.8, 6 °C, control 96 h) was 48 h, the DCL equilibration time ([10]; 5% mol (28.5 μM), pH 7.8, 6 °C, control 96 h) was 24 h and the DCL equilibration time ([10]; 10% mol (57 μM), pH 7.8, 6 °C, control 96 h) was 24 h.
